Data on 31 compounds can be found in patent publication US10689398B2, “OXA-Diazaspiro compounds having activity against pain” (ESTEVE PHARMACEUTICALS, S.A., priority 2015, dated 2020).

Usually Ki stands for a dissociation constant, usually derived from enzyme kinetics or from competition with a known ligand.

The target of this experiment is human σ1 receptor (Homo sapiens (Human), UniProt Q99720). Nature of the experiment: Human σ1 receptor radioligand assay. As to conditions: transfected HEK-293 membranes, [3H](+)-pentazocine radioligand. It is filed as binding. As to the method: Human σ1 Receptor Radioligand Assay
human σ1 receptor, sequence (Q99720 whole entry): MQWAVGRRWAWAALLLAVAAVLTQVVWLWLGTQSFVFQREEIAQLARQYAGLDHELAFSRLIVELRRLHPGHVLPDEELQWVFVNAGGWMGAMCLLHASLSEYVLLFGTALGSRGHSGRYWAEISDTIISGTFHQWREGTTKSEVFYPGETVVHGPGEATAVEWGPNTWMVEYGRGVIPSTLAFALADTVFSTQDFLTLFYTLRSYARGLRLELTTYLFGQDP
To investigate binding properties of test compounds to human σ1 receptor, transfected HEK-293 membranes and [^3H](+)-pentazocine (Perkin Elmer, NET-1056), as the radioligand, were used. The assay was carried out with 7 μg of membrane suspension, 5 nM of [^3H](+)-pentazocine in either absence or presence of either buffer or 10 μM Haloperidol for total and non-specific binding, respectively. Binding buffer contained Tris-HCl 50 mM at pH 8. Plates were incubated at 37° C. for 120 minutes. After the incubation period, the reaction mix was then transferred to MultiScreen HTS, FC plates (Millipore), filtered and plates were washed 3 times with ice-cold 10 mM Tris-HCL (pH7.4). Filters were dried and counted at approximately 40% efficiency in a MicroBeta scintillation counter (Perkin-Elmer) using EcoScint liquid scintillation cocktail
For the compound `O=C1N(c2ccccc2)CC2(CCCN(Cc3ccccc3)CC2)OC12CC2` (stereo not shown) [Example 14, 8-benzyl-13-phenyl-4-oxa-8,13-diazadispiro[2.1.6.3]tetradecan-14-one], the Ki is less than 100 nM. The result for `CCN1CC2(CC2)OC2(CCCN(Cc3ccccc3)C2)C1` (stereo not shown) [Example 17, 7-benzyl-12-ethyl-4-oxa-7,12-diazadispiro[2.1.5.3]tridecane] reads no less than 500 nM; that for `CC1(C)CN(C(=O)c2ccccc2)C[C@]2(CCCN(CCc3ccccc3)CC2)O1` [Example 94, (R)-(2,2-dimethyl-9-phenethyl-1-oxa-4,9-diazaspiro[5.6]dodecan-4-yl)(phenyl)methanone], less than 500 nM; that for `CCN1C[C@@]2(CCCN(Cc3ccccc3)CC2)OC2(CC2)C1=O` [Example 93, (S)-8-benzyl-13-ethyl-4-oxa-8,13-diazadispiro[2.1.6.3]tetradecan-14-one], less than 100 nM. The result for `CC(C)CN1CCCC2(CC1)CN(Cc1ccccc1)CC1(CC1)O2` (stereo not shown) [Example 85, 13-benzyl-8-isobutyl-4-oxa-8,13-diazadispiro[2.1.6.3]tetradecane] reads less than 100 nM; that for `CC(C)CN1CCCC2(C1)CN(C(=O)c1ccccc1)CC1(CC1)O2` (stereo not shown) [Example 26, (7-isobutyl-4-oxa-7,12-diazadispiro[2.1.5.3]tridecan-12-yl)(phenyl)methanone], no less than 500 nM. Turning to `CCN1C[C@@]2(CCCN(Cc3ccc(C#N)cc3)CC2)O[C@H](C)C1=O` [Example 67, 4-(((2R,6S)-4-ethyl-2-methyl-3-oxo-1-oxa-4,9-diazaspiro[5.6]dodecan-9-yl)methyl)benzonitrile], the Ki is no less than 500 nM. `CCN1C[C@@]2(CCCN(CCC(C)C)CC2)O[C@H](C)C1=O` [Example 46, (2R,6S)-4-ethyl-9-isopentyl-2-methyl-1-oxa-4,9-diazaspiro[5.6]dodecan-3-one] displayed a Ki of no less than 500 nM. The result for `CN1CC2(CCCN(Cc3ccc(C#N)cc3)CC2)OC2(CC2)C1=O` (stereo not shown) [Example 73, 4-((13-methyl-14-oxo-4-oxa-8,13-diazadispiro[2.1.6.3]tetradecan-8-yl)methyl)benzonitrile] reads no less than 500 nM; that for `O=C(c1ccccc1)N1CC2(CC2)OC2(CCCN(Cc3ccccc3)C2)C1` (stereo not shown) [Example 55, (7-benzyl-4-oxa-7,12-diazadispiro[2.1.5.3]tridecan-12-yl)(phenyl)methanone], no less than 500 nM; that for `O=C1N(c2ccccc2)CC2(CCCN(CCc3ccccc3)CC2)OC12CC2` (stereo not shown) [Example 9, 8-phenethyl-13-phenyl-4-oxa-8,13-diazadispiro[2.1.6.3]tetradecan-14-one], less than 100 nM.

Compound `CCN1CC2(CCCN(CC(C)C)CC2)OC(C)(C)C1=O` (stereo not shown) [Example 32, 4-ethyl-9-isobutyl-2,2-dimethyl-1-oxa-4,9-diazaspiro[5.6]dodecan-3-one] showed a Ki of less than 500 nM. For the compound `CCN1CC2(CN(CC(C)C)C2)O[C@H](C)C1=O` [Example 38, (R)-8-ethyl-2-isobutyl-6-methyl-5-oxa-2,8-diazaspiro[3.5]nonan-7-one], the Ki is no less than 500 nM. `CC(C)CCN1CCCC2(C1)CN(C(=O)c1ccccc1)CC1(CC1)O2` (stereo not shown) [Example 25, (7-isopentyl-4-oxa-7,12-diazadispiro[2.1.5.3]tridecan-12-yl)(phenyl)methanone] gave a Ki of less than 500 nM.

With `CCN1CC2(CCCN(CCc3ccccc3)C2)OC2(CC2)C1=O` (stereo not shown) [Example 2, 12-Ethyl-7-phenethyl-4-oxa-7,12-diazadispiro[2.1.5.3]tridecan-13-one], the inhibitory constant (Ki) was no less than 500 nM. The result for `CCN1C[C@]2(CCCN(Cc3ccccc3)CC2)OC2(CC2)C1=O` [Example 92, (R)-8-benzyl-13-ethyl-4-oxa-8,13-diazadispiro[2.1.6.3]tetradecan-14-one] reads less than 100 nM; that for `CCN1C[C@]2(CCCN(Cc3ccc(C#N)cc3)CC2)O[C@@H](C)C1=O` [Example 70, 4-(((2S,6R)-4-ethyl-2-methyl-3-oxo-1-oxa-4,9-diazaspiro[5.6]dodecan-9-yl)methyl)benzonitrile], no less than 500 nM; that for `CCN1C[C@@]2(CCCN(Cc3ccc(F)cc3)CC2)O[C@H](C)C1=O` [Example 63, (2R,6S)-4-ethyl-9-(4-fluorobenzyl)-2-methyl-1-oxa-4,9-diazaspiro[5.6]dodecan-3-one], no less than 500 nM.

Take `c1ccc(CCN2CCCC3(CC2)CN(c2ccccc2)CC2(CC2)O3)cc1` (stereo not shown) [Example 22, 8-phenethyl-13-phenyl-4-oxa-8,13-diazadispiro[2.1.6.3]tetradecane]: the Ki was less than 100 nM. The result for `CCN1CC2(CN(CCOC(C)C)C2)OC2(CC2)C1=O` [Example 35, 10-ethyl-7-(2-isopropoxyethyl)-4-oxa-7,10-diazadispiro[2.1.3.3]undecan-11-one] reads no less than 500 nM. The result for `CCN1C[C@]2(CCCN(Cc3ccc(F)cc3)CC2)O[C@@H](C)C1=O` [Example 66, (2S,6R)-4-ethyl-9-(4-fluorobenzyl)-2-methyl-1-oxa-4,9-diazaspiro[5.6]dodecan-3-one] reads no less than 500 nM.

With `CC(C)N1CC2(CN(CC(C)(C)C)C2)O[C@@H](C)C1=O` [Example 76, (S)-8-isopropyl-6-methyl-2-neopentyl-5-oxa-2,8-diazaspiro[3.5]nonan-7-one], the inhibitory constant (Ki) was no less than 500 nM. Next, `CCN1C[C@]2(CCCN(Cc3ccc(C#N)cc3)CC2)O[C@H](C)C1=O` [Example 68, 4-(((2R,6R)-4-ethyl-2-methyl-3-oxo-1-oxa-4,9-diazaspiro[5.6]dodecan-9-yl)methyl)benzonitrile]: no less than 500 nM.

In turn, `CCN1C[C@@]2(CCCN(Cc3ccc(F)cc3)CC2)O[C@@H](C)C1=O` [Example 65, (2S,6S)-4-ethyl-9-(4-fluorobenzyl)-2-methyl-1-oxa-4,9-diazaspiro[5.6]dodecan-3-one] had an inhibitory constant (Ki) of no less than 500 nM. As for `CCN1CC2(CCCN(CCC(C)C)CC2)OC(C)(C)C1=O` (stereo not shown) [Example 31, 4-ethyl-9-isopentyl-2,2-dimethyl-1-oxa-4,9-diazaspiro[5.6]dodecan-3-one], the Ki is less than 500 nM. Next, `CCN1CC2(CCCN(CCc3ccccc3)CC2)OC2(CC2)C1=O` (stereo not shown) [Example 3, 13-ethyl-8-phenethyl-4-oxa-8,13-diazadispiro[2.1.6.3]tetradecan-14-one]: less than 100 nM; `CCN1CC2(CN(CC(C)(C)C)C2)O[C@H](C)C1=O` [Example 75, (R)-8-ethyl-6-methyl-2-neopentyl-5-oxa-2,8-diazaspiro[3.5]nonan-7-one]: no less than 500 nM; `CCN1CC2(CN(CCC(C)C)C2)OC2(CC2)C1=O` [Example 6, 10-ethyl-7-isopentyl-4-oxa-7,10-diazadispiro[2.1.3.3]undecan-11-one]: less than 100 nM. The result for `O=C1N(c2ccccc2)CC2(CCCN(CCc3ccccc3)C2)OC12CC2` (stereo not shown) [Example 7, 7-phenethyl-12-phenyl-4-oxa-7,12-diazadispiro[2.1.5.3]tridecan-13-one] reads less than 500 nM. For `CCN1CC2(CC2)OC2(CCCN(CCc3ccccc3)C2)C1` (stereo not shown) [Example 18], the Ki was no less than 500 nM.

Turning to `c1ccc(CN2CCCC3(CC2)CN(Cc2ccccc2)CC2(CC2)O3)cc1` (stereo not shown) [Example 82, 8,13-dibenzyl-4-oxa-8,13-diazadispiro[2.1.6.3]tetradecane], the Ki is less than 100 nM.
